Legend:
NCI-H226 = test: Growth inhibition of human NCI-H226 cells after 48 hrs by SRB staining method; assay type: functional; conditions: NCI-H226, 48 h
COLO 205 = test: Growth inhibition of human COLO205 cells after 48 hrs by SRB staining method; assay type: functional; conditions: COLO 205, 48 h
HCC 2998 = test: Growth inhibition of human HCC2998 cells after 48 hrs by SRB staining method; assay type: functional; conditions: HCC 2998, 48 h
HT-29 = test: Growth inhibition of human HT29 cells after 48 hrs by SRB staining method; assay type: functional; conditions: HT-29, 48 h
SNB-19 = test: Growth inhibition of human SNB19 cells after 48 hrs by SRB staining method; assay type: functional; conditions: SNB-19, 48 h
SNB-75 = test: Growth inhibition of human SNB75 cells after 48 hrs by SRB staining method; assay type: functional; conditions: SNB-75, 48 h
M14 = test: Growth inhibition of human M14 cells after 48 hrs by SRB staining method; assay type: functional; conditions: M14, 48 h
UACC-257 = test: Growth inhibition of human UACC257 cells after 48 hrs by SRB staining method; assay type: functional; conditions: UACC-257, 48 h
UACC-62 = test: Growth inhibition of human UACC62 cells after 48 hrs by SRB staining method; assay type: functional; conditions: UACC-62, 48 h
IGROV-1 = test: Growth inhibition of human IGROV1 cells after 48 hrs by SRB staining method; assay type: functional; conditions: IGROV-1, 48 h
ACHN = test: Growth inhibition of human ACHN cells after 48 hrs by SRB staining method; assay type: functional
CAKI-1 = test: Growth inhibition of human CAKI1 cells after 48 hrs by SRB staining method; assay type: functional; conditions: CAKI-1, 48 h
RXF 393 = test: Growth inhibition of human RXF393 cells after 48 hrs by SRB staining method; assay type: functional; conditions: RXF 393, 48 h
TK-10 = test: Growth inhibition of human TK10 cells after 48 hrs by SRB staining method; assay type: functional; conditions: TK-10, 48 h
DU-145 = test: Growth inhibition of human DU145 cells after 48 hrs by SRB staining method; assay type: functional; conditions: DU-145, 48 h
NCI/ADR-RES = test: Growth inhibition of human NCI/ADR-RES cells after 48 hrs by SRB staining method; assay type: functional
[1] = Growth inhibition of human HS 578T cells after 48 hrs by SRB staining method; assay type: functional
MDA-MB-435 = test: Growth inhibition of human MDA-MB-435 cells after 48 hrs by SRB staining method; assay type: functional; conditions: MDA-MB-435, 48 h
T47D = test: Growth inhibition of human T47D cells after 48 hrs by SRB staining method; assay type: functional
Dihydrofolate reductase = target: T1, Dihydrofolate reductase (Homo sapiens, UniProt P00374); test: Inhibition of human dihydrofolate reductase
T1 sequence (P00374 whole entry): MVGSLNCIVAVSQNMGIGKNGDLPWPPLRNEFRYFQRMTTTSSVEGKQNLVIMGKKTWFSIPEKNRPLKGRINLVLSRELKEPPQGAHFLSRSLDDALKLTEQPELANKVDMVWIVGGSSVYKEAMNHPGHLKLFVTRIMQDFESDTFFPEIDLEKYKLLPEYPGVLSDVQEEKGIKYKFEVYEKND

MDA-N = test: Growth inhibition of human MDA-N cells after 48 hrs by SRB staining method; assay type: functional
SF-268 = test: Growth inhibition of human SF268 cells after 48 hrs by SRB staining method; assay type: functional; conditions: SF-268, 48 h
CCRF-CEM = test: Growth inhibition of human CCRF-CEM cells after 48 hrs by SRB staining method; assay type: functional
HL-60 = test: Growth inhibition of human HL60 cells after 48 hrs by SRB staining method; assay type: functional; conditions: HL-60, 48 h
K562 = test: Growth inhibition of human K562 cells after 48 hrs by SRB staining method; assay type: functional; conditions: K562, 48 h
Thymidylate synthase = Thymidylate synthase (Homo sapiens, UniProt P04818)
Description: Inhibition of human thymidylate synthase

[2] = read-out: pLC50 (the source's name) (converted)

Sequence of Thymidylate synthase (P04818 whole entry): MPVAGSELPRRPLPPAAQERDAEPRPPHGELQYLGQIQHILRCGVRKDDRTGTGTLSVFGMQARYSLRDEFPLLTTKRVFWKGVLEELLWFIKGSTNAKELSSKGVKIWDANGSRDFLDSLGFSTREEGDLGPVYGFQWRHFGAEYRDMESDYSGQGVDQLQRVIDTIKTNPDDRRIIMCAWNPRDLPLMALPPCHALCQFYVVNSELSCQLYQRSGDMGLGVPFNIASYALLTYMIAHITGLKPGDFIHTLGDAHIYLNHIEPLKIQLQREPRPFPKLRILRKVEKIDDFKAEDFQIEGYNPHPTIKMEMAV

In the case of `COc1cc(Nc2nc3cc(N)cc(N)c3nc2-c2ccccc2)cc(OC)c1`, the GI50 (NCI-H226) is reported as 2.88 µM, the LC50 (NCI-H226) is reported as over 100 µM and the TGI (NCI-H226; read-out: pTGI (converted)) is reported as 33.1 µM. For the same compound, the GI50 (COLO 205) was 14.5 µM, the LC50 (COLO 205) was 67.6 µM and the TGI (COLO 205; read-out: pTGI (converted)) was 31.6 µM. For the same compound, the GI50 (HCC 2998) was 24.5 µM, the LC50 (HCC 2998) was over 100 µM and the TGI (HCC 2998; read-out: pTGI (converted)) was over 100 µM. The GI50 (HT-29) was 27.5 µM, the LC50 (HT-29) was over 100 µM and the TGI (HT-29; read-out: pTGI (converted)) was over 100 µM. It also gave a GI50 (SNB-19) of 57.5 µM, an LC50 (SNB-19) of over 100 µM and a TGI (SNB-19; read-out: pTGI (converted)) of over 100 µM. For the same compound, the GI50 (SNB-75) was 3.72 µM, the LC50 (SNB-75) was over 100 µM and the TGI (SNB-75; read-out: pTGI (converted)) was 44.7 µM. It also gave a GI50 (M14) of 14.1 µM, an LC50 (M14) of 85.1 µM and a TGI (M14; read-out: pTGI (converted)) of 34.7 µM. It also gave a GI50 (UACC-257) of 15.8 µM, an LC50 (UACC-257) of over 100 µM and a TGI (UACC-257; read-out: pTGI (converted)) of 47.9 µM. It also gave a GI50 (UACC-62) of 7.41 µM, an LC50 (UACC-62) of 61.7 µM and a TGI (UACC-62; read-out: pTGI (converted)) of 23.4 µM. The GI50 (IGROV-1) was 2.69 µM, the LC50 (IGROV-1) was over 100 µM and the TGI (IGROV-1; read-out: pTGI (converted)) was 17 µM. The GI50 (ACHN) was 5.62 µM, the CC50 (ACHN; [2]) was over 100 µM and the TGI (ACHN; read-out: pTGI (converted)) was 83.2 µM. The GI50 (CAKI-1) was 14.8 µM, the CC50 (CAKI-1; [2]) was over 100 µM and the TGI (CAKI-1; read-out: pTGI (converted)) was 72.4 µM. It also gave a GI50 (RXF 393) of 3.16 µM, a CC50 (RXF 393; [2]) of 95.5 µM and a TGI (RXF 393; read-out: pTGI (converted)) of 18.6 µM. It also gave a GI50 (TK-10) of 13.2 µM, a CC50 (TK-10; [2]) of over 100 µM and a TGI (TK-10; read-out: pTGI (converted)) of 42.7 µM. It also gave a GI50 (DU-145) of 22.9 µM, a CC50 (DU-145; [2]) of over 100 µM and a TGI (DU-145; read-out: pTGI (converted)) of over 100 µM. It also gave a GI50 (NCI/ADR-RES) of 12.9 µM, a CC50 (NCI/ADR-RES; [2]) of over 100 µM and a TGI (NCI/ADR-RES; read-out: pTGI (converted)) of 74.1 µM. For the same compound, the GI50 [1] was 11 µM, the CC50 [1, 2] was over 100 µM and the TGI ([1]; read-out: pTGI (converted)) was 63.1 µM. It also gave a GI50 (MDA-MB-435) of 11.5 µM, a CC50 (MDA-MB-435; [2]) of 49 µM and a TGI (MDA-MB-435; read-out: pTGI (converted)) of 24 µM. The GI50 (T47D) was 4.47 µM, the CC50 (T47D; [2]) was over 100 µM and the TGI (T47D; read-out: pTGI (converted)) was 22.9 µM. For the same compound, the Ki (Dihydrofolate reductase) was 0.6 µM, the GI50 (MDA-N) was 12.9 µM and the CC50 (MDA-N; [2]) was 100 µM. For the same compound, the TGI (MDA-N; read-out: pTGI (converted)) was 36.3 µM, the GI50 (SF-268) was 5.62 µM and the CC50 (SF-268; [2]) was over 100 µM. It also gave a TGI (SF-268; read-out: pTGI (converted)) of 56.2 µM, a GI50 (CCRF-CEM) of under 0.01 µM and a CC50 (CCRF-CEM; [2]) of 0.977 µM. For the same compound, the TGI (CCRF-CEM; read-out: pTGI (converted)) was 0.166 µM, the GI50 (HL-60) was 10 µM and the CC50 (HL-60; [2]) was over 100 µM. The TGI (HL-60; read-out: pTGI (converted)) was over 100 µM, the GI50 (K562) was 27.5 µM and the CC50 (K562; [2]) was over 100 µM. The TGI (K562; read-out: pTGI (converted)) was over 100 µM and the Ki (Thymidylate synthase) was 25 µM.
